# Assay results as given in US10519114B2, “Peptidomimetics and methods of using the same” (The Regents of the University of Michigan, priority 2016, dated 2019).
# Experiments:
# [1] = biological target: T1, rat δ (C6-DOR) opioid receptor (Rattus norvegicus, UniProt P33533); test: Radioligand binding assay, [3H]diprenorphine displacement, DOR; details: displacement of 0.2 nM [3H]diprenorphine, C6-DOR membranes; mean ± standard error
# T1 construct: expressed in transfected cells
# Procedure, shortened: (§1)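 Ki values come from logistic fits of competition data, with filter-bound radioactivity counted after displacement of 0.2 nM [3H]diprenorphine. Membranes were from rat receptor-transfected C6 cells (MOR, DOR) or human KOR-expressing CHO cells. Incubation ran 1 h at room temperature in pH 7.4 Tris-HCl.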
# [2] = biological target: T2, human κ (CHO-KOR) opioid receptor (Homo sapiens, UniProt P41145); test: Radioligand binding assay, [3H]diprenorphine displacement, KOR; details: displacement of 0.2 nM [3H]diprenorphine, CHO-KOR membranes; mean ± standard error
# T2 construct: expressed in transfected cells
# T2 sequence (P41145 whole entry): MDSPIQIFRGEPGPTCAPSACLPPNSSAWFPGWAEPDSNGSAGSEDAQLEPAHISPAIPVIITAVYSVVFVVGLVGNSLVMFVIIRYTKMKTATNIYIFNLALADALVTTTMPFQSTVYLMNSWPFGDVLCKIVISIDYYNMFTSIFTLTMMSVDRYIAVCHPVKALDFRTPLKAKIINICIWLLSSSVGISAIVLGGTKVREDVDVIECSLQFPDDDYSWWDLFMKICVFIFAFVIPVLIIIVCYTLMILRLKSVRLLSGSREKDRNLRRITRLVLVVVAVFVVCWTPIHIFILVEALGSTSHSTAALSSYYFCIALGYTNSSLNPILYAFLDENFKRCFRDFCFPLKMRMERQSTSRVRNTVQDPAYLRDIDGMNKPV
# Procedure, shortened: as §1
# [3] = biological target: T2, human κ (CHO-KOR) opioid receptor; test: Stimulation of [35S]GTPγS binding, KOR; type: biochemical; details: for EC50 (nm) KOR / EC50: [35S]GTPγS binding, CHO-KOR membranes, mean ± standard error; for % stimulation KOR / Emax: [35S]GTPγS maximal stimulation compared with 10 μM standard U-69,593
# Procedure, shortened: (§2)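 Peptide-stimulated [35S]GTPγS (0.1 nM) binding, with 30 μM GDP, 5 mM MgCl2 and 100 mM NaCl at pH 7.4, was measured over 1 h at room temperature. Membranes came from rat MOR/DOR C6 or human KOR CHO cells. Filter-retained counts were expressed against 10 μM DAMGO, DPDPE or U69,593 respectively; maxima were fitted nonlinearly.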
# [4] = biological target: T3, rat μ (C6-MOR) opioid receptor (Rattus norvegicus, UniProt P33535); test: Stimulation of [35S]GTPγS binding, MOR; type: biochemical; details: for EC50: [35S]GTPγS binding, C6-MOR membranes, mean ± standard error; for Emax: [35S]GTPγS maximal stimulation compared with 10 μM standard DAMGO
# T3 construct: expressed in transfected cells
# T3 sequence (P33535 whole entry): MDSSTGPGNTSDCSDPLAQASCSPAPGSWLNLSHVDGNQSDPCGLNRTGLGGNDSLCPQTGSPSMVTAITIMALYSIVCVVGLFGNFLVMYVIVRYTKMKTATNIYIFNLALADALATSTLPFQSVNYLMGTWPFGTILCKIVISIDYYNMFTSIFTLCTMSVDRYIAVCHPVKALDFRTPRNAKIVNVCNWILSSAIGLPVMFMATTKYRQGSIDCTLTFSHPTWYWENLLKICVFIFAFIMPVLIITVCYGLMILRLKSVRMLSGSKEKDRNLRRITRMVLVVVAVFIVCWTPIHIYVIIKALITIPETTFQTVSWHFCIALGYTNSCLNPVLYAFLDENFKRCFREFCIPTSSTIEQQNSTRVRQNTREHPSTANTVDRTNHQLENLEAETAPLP
# Procedure, shortened: as §2
# [5] = biological target: T1, rat δ (C6-DOR) opioid receptor; test: Stimulation of [35S]GTPγS binding, DOR; type: biochemical; details: for EC50 (nm) DOR / EC50: [35S]GTPγS binding, C6-DOR membranes, mean ± standard error; for % stimulation DOR / Emax: [35S]GTPγS maximal stimulation compared with 10 μM standard DPDPE
# Procedure, shortened: as §2
# [6] = biological target: T3, rat μ (C6-MOR) opioid receptor; test: Radioligand binding assay, [3H]diprenorphine displacement, MOR; details: displacement of 0.2 nM [3H]diprenorphine, C6-MOR membranes; mean ± standard error
# Procedure, shortened: as §1
# T1 sequence (P33533 whole entry): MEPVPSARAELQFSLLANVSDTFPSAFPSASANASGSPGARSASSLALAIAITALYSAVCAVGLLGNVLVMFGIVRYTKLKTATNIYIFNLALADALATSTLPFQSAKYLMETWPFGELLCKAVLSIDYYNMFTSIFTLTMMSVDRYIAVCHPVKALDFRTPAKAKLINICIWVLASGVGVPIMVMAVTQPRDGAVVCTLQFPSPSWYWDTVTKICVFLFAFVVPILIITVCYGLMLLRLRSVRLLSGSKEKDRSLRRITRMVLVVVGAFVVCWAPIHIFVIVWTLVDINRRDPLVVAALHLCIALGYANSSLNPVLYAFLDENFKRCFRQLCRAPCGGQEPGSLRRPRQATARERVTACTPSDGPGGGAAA
Structure (SMILES),Ki [1],Ki [2],EC50 (nm) KOR [3],% stimulation KOR [3],EC50 [4],Emax [4],EC50 (nm) DOR [5],% stimulation DOR [5],Ki [6],EC50 [3],Emax [3],EC50 [5],Emax [5]
Cc1cc(O)cc(C)c1C[C@H](N)C(=O)N[C@@H]1CCNc2c(-c3cc4ccccc4o3)cc(Cc3ccccc3)cc21 [Compound 1095],71 ± 17 nM,800 ± 115 nM,dns,dns,15.6 ± 6.86 nM,100 ± 2.48%,dns,dns,3.14 ± 1 nM,–,–,–,–
Cc1cc(O)cc(C)c1C[C@H](N)C(=O)N[C@@H]1CCNc2c(CN3CCN(C(=O)[C@@H](N)Cc4c(C)cc(O)cc4C)CC3)cc(Cc3ccccc3)cc21 [Compound 1096],2.56 ± 0.53 nM,7.17 ± 2.38 nM,dns,dns,5.89 ± 0.68 nM,86 ± 8%,dns,dns,0.31 ± 0.16 nM,–,–,–,–
Cc1cc(O)cc(C)c1C[C@H](N)C(=O)N[C@@H]1CCOc2ccc(Cc3ccccc3)cc21 [Compound 1111],8.65 ± 1.61 nM,58.3 ± 14.1 nM,–,–,4.85 ± 2.14 nM,69.7 ± 5.97%,–,–,0.046 ± 0.028 nM,662 ± 152 nM,28.3 ± 6.71%,118 ± 2.45 nM,8.97 ± 4.78%
Cc1cc(O)cc(C)c1C[C@H](N)C(=O)N[C@H]1CCOc2ccc(Cc3ccccc3)cc21 [Compound 1112],260 ± 62.9 nM,354 ± 37.1 nM,–,–,654 ± 361 nM,7.18 ± 2.41%,–,–,6.07 ± 2.41 nM,–,-0.061 ± 0.45%,–,2.48 ± 3.08%
Cc1cc(O)cc(C)c1C[C@H](N)C(=O)N[C@@H]1CCCc2ccccc21 [Compound 1113],640 ± 218 nM,2060 ± 582 nM,–,–,–,3.44 ± 2.09%,–,–,25.6 ± 10.9 nM,–,-1.05%,–,-0.76 ± 0.62%
Cc1cc(O)cc(C)c1C[C@H](N)C(=O)NC1CCc2ccc(Cc3ccccc3)cc21 (some centres unmarked) [Compound 1114],29.9 ± 10.1 nM,143 ± 45.4 nM,–,–,18.3 ± 8.14 nM,42.6 ± 8.65%,–,–,0.55 ± 0.09 nM,1600 nM,3.7 ± 4.06%,–,3.07 ± 1.82%
Cc1cc(O)cc(C)c1C[C@H](N)C(=O)N[C@@H]1CCCc2ccc(-c3cccc4ccccc34)cc21 [Compound 1115],45.5 ± 26.9 nM,131 ± 42.3 nM,–,–,–,0.34 ± 3.26%,–,–,5.44 ± 2.7 nM,200 nM,3.82 ± 3.2%,–,-2.57 ± 4.3%
Cc1cc(O)cc(C)c1C[C@H](N)C(=O)N[C@@H]1CCCc2ccc(-c3ccc4ccccc4c3)cc21 [Compound 1116],6.03 ± 0.2 nM,315.9 ± 0.91 nM,–,–,–,-1.1 ± 1.61%,–,–,0.24 ± 0.12 nM,237 nM,5.57 ± 8.53%,–,1.75 ± 1.44%
Cc1cc(O)cc(C)c1C[C@H](N)C(=O)N[C@@H]1CCCc2ccc(-c3ccccc3)cc21 [Compound 1117],3.99 ± 1.31 nM,20.9 ± 4.12 nM,–,–,9.51 ± 3.3 nM,28.7 ± 2.39%,–,–,0.57 ± 0.32 nM,321 ± 176 nM,45.6 ± 1.77%,181 ± 28.2 nM,21.2 ± 10.7%
Cc1cc(O)cc(C)c1C[C@H](N)C(=O)N[C@@H]1CCSc2ccc(Cc3ccccc3)cc21 [Compound 1123],4.79 ± 1.11 nM,48.4 ± 23.1 nM,–,–,1.92 ± 0.54 nM,79.9 ± 7.51%,dns,dns,0.15 ± 0.04 nM,337 ± 205 nM,10.3 ± 5.17%,–,–
Cc1cc(O)cc(C)c1C[C@H](N)C(=O)N[C@@H]1CCS(=O)(=O)c2ccc(Cc3ccccc3)cc21 [Compound 1124],2.34 ± 1.42 nM,27.2 ± 5.99 nM,–,–,0.72 ± 0.11 nM,94.5 ± 3.04%,–,–,0.06 ± 0.01 nM,721 ± 317 nM,35.8 ± 2.15%,126 ± 72.5 nM,45.2 ± 5.62%
CC(=O)N1CC[C@@H](NC(=O)[C@@H](N)Cc2c(C)cc(O)cc2C)c2cc(CC3Cc4ccccc4C3C)ccc21 (some centres unmarked) [Compound 1125],0.67 ± 0.08 nM,2.53 ± 1.52 nM,dns,dns,3.03 ± 2.32 nM,69.5 ± 10.4%,dns,dns,0.28 ± 0.12 nM,–,–,–,–
Cc1cc(O)cc(C)c1C[C@H](N)C(=O)N[C@@H]1CCNc2c(CN3CCNCC3)cc(Cc3ccccc3)cc21 [Compound 1131],22 nM,1.9 nM,–,–,8 nM,61%,–,–,0.35 nM,190 nM,18%,280 nM,17%
